“And” between values parts separate entries of the source, which are not always exact repeats. Equal entries are not always repeated. Marks after values point to notes of the source that are not given here.
Assays:
[1] = test system: patients with chronic intestinal pseudo-obstruction; details: prucalopride 2 mg, 12-week periods, cited from earlier work
[2] = test system: Prp-SCA7-92Q transgenic mice; experiment: Morphometric gut evaluation (HE histological score) in Prp-SCA7-92Q transgenic mice; assay type: in vivo; details: Prp-SCA7-92Q mice
Experimental: After mice were sacrificed by CO2 inhalation, the small intestine and colon tissue were cut, fixed for 48 hours with 10% neutral buffered formalin. The paraffin sample was prepared by dehydration with a series of gradient alcohol solutions according to standard methods known in the field. Tissues were cut into 4 μm sections by rotary microtome and baked for 2 hours at 60° C. After (HE) hematoxylin-eosin (HE) images were obtained from each animal at 20× magnification for histological analyses by fully automatic digital pathology slide-system (KF BIO, KF-PRO-005, China) using K-viewer Imaging software (KF BiO, V1, China).
The presence of inflammation and ulcers was quantified using indicators (i.e. ulcers=% area with intestinal mucosal damage, inflammation=necrosis, bleeding) to which a score from 0 to 3 was associated. Inflammation and ulcers scoring were awarded after section evaluation and analysis.

Prp-SCA7-92Q mice = experiment: Body weight and tolerability in Prp-SCA7-92Q mice; assay type: in vivo; details: 1 and 3 mg/kg, 5 weeks of treatment
Excerpt: A normal control (NC) group of untreated wild-type mice was also examined. No significant differences were noticed between groups (FIG. 13).

[3] = test system: subjects with idiopathic Chronic Intestinal Pseudo-Obstruction (CIPO)
Experimental: Safety was assessed at each visit measuring and evaluating changes from the baseline of the following parameters: • Vital signs (including blood pressure, pulse, temperature). • Physical examination also including height and weight. • Routine laboratory parameters (hematocrit, hemoglobin, red blood cell count, white blood cell count with differential count and platelet count for hematology; glycaemia, total cholesterol, triglycerides, serum creatinine, urea or blood urea nitrogen [BUN], sodium, potassium, chloride, AST, ALT, Gamma-GT, alkaline phosphatase, total and fractioned bilirubin (direct and indirect), erythrocyte sedimentation rate, PT (or INR), aPTT for biochemistry; specific gravity, pH, protein, glucose, ketones, hemoglobin, nitrite, bilirubin, urobilinogen and microscopic examination for urinalysis). • Triplicate ECG • Adverse events (AEs). • Withdrawal from study due to AEs.
Adverse events starting on or after the first intake of investigational product were considered treatment-emergent AEs (TEAEs). Verbatim terms for AEs were coded using the most current version of Medical Dictionary for Regulatory Activities (MedDRA) coding. […]

[4] = test system: subjects with idiopathic Chronic Intestinal Pseudo-Obstruction (CIPO); details: in vivo
Excerpt: Visits where assessed at the beginning of the screening period (Visit 1), at the beginning and at the end of each period of treatment (Visit 2 to Visit 9) and at the end of the follow-up period (Visit 10).
PLA=matching placebo once daily for 4 weeks.
Gastrointestinal symptom severity (abdominal pain, bloating, nausea and vomiting) and bowel habit (weekly recall) were registered on Day −1 and weekly after randomization, during both treatment and washout periods, as appropriate according to the Schedule of Assessments using an e-diary until end of follow up period.
Subjects were instructed to take three capsules of medication orally, once daily at approximately the same time each morning, on an empty stomach, with water.
The Primary efficacy endpoints was to evaluate the change in weekly global gastrointestinal symptoms average index score (WGGSAIS) from start to the end of each treatment period.
The WGGSAIS was obtained by averaging the scores for each of the 4 symptoms assessed weekly: abdominal pain, bloating, nausea and vomiting, with lower scores representing better health. If at least 2 symptoms were assessed, the average score was calculated, otherwise, it was considered missing.
Change between the end of treatment and pre-treatment WGGSAIS value≤−1 point was computed and considered a “success” while changes >−1 were considered a “failure”. The proportion of subjects with a 1-point improvement in WGGSAIS is summarized by treatment sequence, period and timepoint (weekly evaluation by e Diary.
Considering the evaluable pairs, the proportions of pairs of observations with 1-point improvement in WGGSAIS is summarized by treatment and timepoint. […]
Considering the evaluable pairs, the number of pseudo-obstruction episodes occurring within each treatment period and number of pseudo-obstruction episodes occurring within wash-out/follow up was considered as categorical variables classified as 0, 1, 2 and >2 and are summarized by treatment.
The same descriptive analyses described above are repeated focusing on change from the end of each treatment period to the end of each week of washout period or follow-up period instead of the change between post-treatment and pre-treatment.

## COCCCN1CCC(NC(=O)c2cc(Cl)c(N)c3c2OCC3)CC1 [prucalopride]
[1]
  stool frequency and consistency: did not affect
[1]; four completers
  patients with significantly improved bloating: four
  patients with significantly improved nausea: two
  patients with significantly improved pain: three of four patients
  patients with significantly improved vomiting: one

## CC(C)n1c(=O)c(C(=O)N[C@H]2C[C@H]3CC[C@@H](C2)N3C[C@@H](O)CN(C)S(C)(=O)=O)cc2ccccc21 [velusetrag, 1-isopropyl-2-oxo-1,2-dihydroquinoline-3-carboxylic acid {(1S,3R,5R)-8-[(R)-2-hydroxy-3-(methanesulfonyl-methyl-amino)propyl]-8-azabicyclo[3.2.1]oct-3-yl}amide]
[2]; 1 mg/kg po once daily 5 weeks
  Inflammation (count of necrosis) score, DSI: 1.6 ± 0.1
  Inflammation (count of necrosis) score, Proximal Colon: 1.5 ± 0.1
  Total score, DSI: 2.4 ± 0.1
  Total score, Proximal Colon: 2.4 ± 0.1
  Ulcers (mucosal damage) score, DSI: 0.8 ± 0.1^∘
  Ulcers (mucosal damage) score, Proximal Colon: 0.9 ± 0.05
[2]; 3 mg/kg po once daily 5 weeks
  Inflammation (count of necrosis) score, DSI: 1.2 ± 0.1*^∘∘∘
  Inflammation (count of necrosis) score, Proximal Colon: 1.1 ± 0.1*^∘∘∘
  Total score, DSI: 1.8 ± 0.1**^∘
  Total score, Proximal Colon: 1.5 ± 0.1*^∘∘∘
  Ulcers (mucosal damage) score, DSI: 0.6 ± 0.1^∘
  Ulcers (mucosal damage) score, Proximal Colon: 0.4 ± 0.01^∘∘
Prp-SCA7-92Q mice
  tolerability: body weight and lethality throughout treatment: no reduction in body weight and lethality was observed
[3]; Safety Set (placebo emergent 38)
  total TEAEs classified as velusetrag emergent: 29
[3]; Safety Set, 17 subjects (placebo emergent 58.82%)
  subjects with TEAEs classified as velusetrag emergent, %: 41.18%
[4]
  WGGSAIS total score, mean change from end of treatment at the end of wash-out: 0.54±0.736
  WGGSAIS, mean: 1.707 and 1.608 and 1.367 and 1.458
  WGGSAIS, mean change from pre-treatment to end of treatment: −0.529±0.7956
  WGGSAIS, mean difference between treatments (velusetrag minus placebo): −0.342+0.9343

Source: US20260124194A1 (priority 2022, published 2026)
